Results: patent publication US9604926B2 (THE UNIVERSITY OF MISSISSIPPI, priority 2007, dated 2017)
“Also recorded” adds a separate entry of the source.

Columns and labels:
σ-1 receptor = σ-1 receptor (Homo sapiens (Human), UniProt Q99720); details: literature, cited from earlier work
[1] = Metabolic stability of AZ_66 in rat liver microsomes; assay type: in vitro ADME
Method: Metabolic stability of AZ_66 (1 μM) was performed in Ammonium acetate buffer (50 mM, pH 7.4) with Rat liver microsomes (0.5 mg) at 37° C. in 0.5 ml of incubation mixture. The incubation mixture composed of Ammonium acetate buffer (50 mM, pH 7.4), Magnesium chloride (3 mM), NADPH regenerating system consisting of NADP (1 mM), glucose-6-phosphate (5 mM), and glucose-6-phosphate dehydrogenase (1 Unit/mL). The Substrate and microsomes were pre incubated at 37° C. for 5 min before starting the reaction. The reactions were started by the addition of regenerating system and carried out at 37° C. in a shaking water bath for 60 min. The incubations were stopped by adding equal volume of ice cold acetonitrile at predetermined time points (0, 5, 15, 30, 60 min). The samples were centrifuged for 10 min at 4° C. and the supernatant was injected in to UPLC/MS/MS. Control incubation without NADPH was also performed and these served as 100% value. All microsomal incubations were conducted using the same lot of microsomes.
In vitro half-life and CLint: The percent of the parent compound remaining is plotted versus time. The slope of the line gives the rate constant k for the disappearance of parent compound, from which an in vitro t1/2 can be calculated. CLint can be calculated using the following formula
[formula] [V] is the incubation volume in μl and [P] is the amount of microsomal protein in the incubation.

σ-2 receptor = σ-2 receptor (Rattus norvegicus (Rat), UniProt Q5U3Y7); test: σ-2 receptor binding in rat brain homogenates ([3H]DTG plus (+)-pentazocine); details: read-out: Ki (nm) σ2; compound listing tables
Method: Compounds were evaluated for σ-1 and σ-2 binding in rat brain homogenates. […] The assays were terminated with ice-cold 10 mM Tris-HCl, pH 8.0, followed by two washes through glass fiber filters that were pre-soaked for at least 30 min in 0.5% polyethyleneimine.

mouse brain = details: mice, literature; cited from earlier work
59 targets (non-sigma) = test: NovaScreen and in-house profile of 59 targets; assay type: binding; details: nine targets
Method: Competition binding assays were performed as previously described. Briefly, radioligands were used to tag the targeted sites under standard conditions.

[2] = In vitro half-life in mouse liver microsomes; assay type: in vitro ADME
Method: The reaction was initiated by adding cofactors and quenched at designated time points (0, 5, 10, 15, 30, 45, 60 min) by addition of an equal volume of ice-cold acetonitrile (ACN). […].
The basic incubation mixture consisted of 5 mM substrate, 1 mg/mL microsomal protein, 3 mM MgCl2, 1 mM NADP, 5 mM glucose-6-phosphate, 1 IU/mL glucose-6-phosphate dehydrogenase, 100 mM Tris HCl buffer (pH 7.4) in a final volume of 1 mL. The reaction was initiated by adding cofactors and quenched at designated time points (0, 5, 10, 15, 30, 45, 60 min) by addition of an equal volume of ice-cold ACN. The mixture was centrifuged at 3000 rpm for 10 min, and the supernatant was analysed by UPLC/MS/MS.

Swiss Webster mice [3] = test: In vivo cocaine studies with CM304 (cocaine-induced convulsions); details: 0.001-10 mg/kg i.p. 15 min before cocaine 70 mg/kg i.p., hydrochloride
[4] = Partition coefficient (Log P / Log D), shake-flask n-octanol and water/PBS; assay type: physicochemical; details: read-out: experimental Log P O/W±SD
Method: Using the Shake-flask method, 47 n-Octanol and water/PBS, pH 7.4 (equal quantity) were added to a glass vial (25 ml). […] Water/PBS, pH 7.4 phase was brought into a vessel together with a Teflon-coated magnetic stirring bar. The n-octanol phase containing the known quantity of test substance was poured very carefully on top of the aqueous phase in order to avoid emulsion formation as far as possible. […] The contents were allowed to separate on standing and then centrifuged. An aliquot of aqueous layer was taken and diluted (1000 times) for quantitative analysis by UPLC/MS/MS.

[5] = assay type: in vitro ADME
rat brain = details: literature; cited from earlier work
Swiss Webster mice [6] = test: Development of cocaine-induced sensitization; assay type: in vivo, mouse; details: pretreatment Days 1-5, cocaine 10 mg/kg i.p., test Day 15
Method: Male, Swiss Webster mice were acclimated as detailed above. […] The total locomotor activity (ambulatory, fine and rearing movements) of the mice was recorded for the next 30 min as the number of disruptions made by them in the 16×16 photobeam grids of their testing chamber on each of the five days. A 10 day drug-free period followed. On Day 15, all of the mice were pre-administered (i.p.) saline followed by cocaine (10 mg/kg, i.p.), and locomotor activity quantified for the next 30 min.

Swiss Webster mice [7] = test: Expression of cocaine-induced sensitization; assay type: in vivo, mouse; details: compound on Day 15 before cocaine 10 mg/kg i.p.
Method: Male, Swiss Webster mice were acclimated as detailed above. For five consecutive days (Days 1-5), the mice were pretreated (i.p) with saline, then challenged 15 min later with cocaine (10 mg/kg, i.p.). The total locomotor activity (ambulatory, fine and rearing movements) of the mice was recorded for the next 30 min. A 10 day drug free period followed and on Day 15, the mice were administered saline (i.p.) or compound (0.1-20 mg/kg), followed 15 min later with cocaine (10 mg/kg, i.p.). Locomotor activity was then recorded for the next 30 min.

dopamine D2 receptors = dopamine D2 receptors (Rattus norvegicus (Rat), UniProt P61169); test: Non-σ competition binding, dopamine D2 receptors ([3H](−)-sulpiride); details: rat brain homogenates
Method: (§1) Compounds were tested at various non-σ target sites to evaluate selectivity because cocaine interacts with these sites (dopamine, serotonin and norepinephrine transporters) or historic “sigma” ligands interact with them (opioid, NMDA, dopamine D2, 5-HT2 receptors). The compounds were tested in competition binding assays using rat brain homogenates as previously published. […] The results were reported as Ki in nM.

Swiss Webster mice [8] = test: Cocaine-induced locomotor activity; assay type: in vivo, mouse; details: i.p. pretreatment 15 min before cocaine 20 mg/kg i.p.
Method: Male, Swiss Webster mice were acclimated to the treatment room and then to the chambers of the automated activity monitoring system (San Diego Instruments, San Diego, Calif.). […] The total locomotor activity (ambulatory, fine and rearing movements) of the mice was recorded for the next 30 min as the number of disruptions made by them in the 16×16 photobeam grid of their testing chamber.

Swiss Webster mice [9] = test: Cocaine-induced convulsions; assay type: in vivo, mouse; details: i.p. pretreatment 15 min before cocaine 70 mg/kg i.p.
NMDA receptors = test: Non-σ competition binding, NMDA receptors ([3H]TCP); details: rat brain homogenates
Method: as §1

5-HT2 receptors = 5-HT2 receptors (Rattus norvegicus (Rat), UniProt P14842); test: Non-σ competition binding, 5-HT2 receptors ([3H]ketanserin); details: rat brain homogenates
Method: as §1

opioid receptors = test: Non-σ competition binding, opioid receptors ([3H]bremazocine); details: rat brain homogenates
Method: as §1

[10] = target: σ-1 receptor (CHO cells transfected with σ-1 receptor cDNA) (Homo sapiens (Human), UniProt Q99720); test: Cell uptake studies in transfected CHO cells; details: 120 min
Method: Control CHO cells (transfected with a vector not containing the σ-1 receptor gene—to serve as a negative control) and CHO cells transfected with a vector containing σ-1 receptor cDNA (to serve as a positive control for σ-1 receptor expression in cells) were used for the uptake assays. […] The incubated cells were subsequently washed, lysed and counted for radioactivity. All collected data were normalized for amount of protein present in each well.
Cells CHO cells were grown in Ham's F-12 medium. For uptake studies CHO cells were transfected using Lipofectamine 2000 (Invitrogen, Carlsbad, Calif., USA) and either pcDNA (empty vector, negative control) or σ-1 receptor gene (OPRS1, accession number NM_005866.2, OriGene, Rockville, Md., USA) following manufacturers directions. […] Twenty-four hours later, CHO cells were transfected with either 0.8 μg pcDNA (empty vector, control), or 0.8 μg sigma-1 DNA. […] A portion of each lysate (250 μL) was transferred to a glass tube and activity was measured with a Cobra II γ counter (Packard-Perkin Elmer, Waltham, Mass., USA). Protein content from each well was measured by Bradford assay. The same protocol was followed for (+)-[^3H]pentazocine, except the activity was measured with a liquid scintillation counter (Beckman Coulter LS 6500, Brea, Calif., USA).

Swiss Webster mice [11] = test: Methamphetamine-induced locomotor activity; assay type: in vivo, mouse; details: i.p. pretreatment 15 min before methamphetamine 1 mg/kg i.p.
Method: Male, Swiss Webster mice were acclimated as detailed above. […] The total locomotor activity (ambulatory, fine and rearing movements) of the mice was recorded for the next 30 min as the number of disruptions made by them in the 16×16 photobeam grids surrounding their testing chambers.

Swiss Webster mice [12] = test: Methamphetamine-induced dopamine depletions; assay type: in vivo, mouse; details: methamphetamine 5 mg/kg x4 at 2 hr intervals, striatal dopamine one week later
Method: Male, Swiss Webster mice were injected (i.p.) with saline or compound (0-20 mg/kg), followed 15 min later with either saline (-METH) or methamphetamine (5 mg/kg) at 2 hr intervals, a total of four times. Striatal dopamine levels were measured one week later.

Sequence of σ-1 receptor (Q99720 whole entry, species assumed): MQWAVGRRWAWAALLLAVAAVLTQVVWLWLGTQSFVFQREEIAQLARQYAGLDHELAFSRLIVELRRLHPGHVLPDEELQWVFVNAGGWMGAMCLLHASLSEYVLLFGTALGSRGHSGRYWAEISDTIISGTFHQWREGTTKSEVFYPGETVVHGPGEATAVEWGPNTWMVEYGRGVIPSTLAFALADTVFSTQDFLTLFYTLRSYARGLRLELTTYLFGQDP
Sequence of dopamine D2 receptors (P61169 whole entry): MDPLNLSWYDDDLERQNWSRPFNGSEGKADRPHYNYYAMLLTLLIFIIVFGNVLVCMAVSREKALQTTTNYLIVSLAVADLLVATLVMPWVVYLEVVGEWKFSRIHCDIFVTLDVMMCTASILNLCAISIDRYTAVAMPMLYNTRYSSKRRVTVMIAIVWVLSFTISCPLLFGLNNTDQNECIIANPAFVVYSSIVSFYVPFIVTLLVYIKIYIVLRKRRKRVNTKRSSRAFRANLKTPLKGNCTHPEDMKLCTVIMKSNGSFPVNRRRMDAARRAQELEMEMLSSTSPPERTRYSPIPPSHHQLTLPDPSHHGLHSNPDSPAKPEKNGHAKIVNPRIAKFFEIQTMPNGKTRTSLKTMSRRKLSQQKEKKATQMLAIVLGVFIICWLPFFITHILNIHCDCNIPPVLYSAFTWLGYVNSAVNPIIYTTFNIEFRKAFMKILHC
Sequence of 5-HT2 receptors (P14842 whole entry): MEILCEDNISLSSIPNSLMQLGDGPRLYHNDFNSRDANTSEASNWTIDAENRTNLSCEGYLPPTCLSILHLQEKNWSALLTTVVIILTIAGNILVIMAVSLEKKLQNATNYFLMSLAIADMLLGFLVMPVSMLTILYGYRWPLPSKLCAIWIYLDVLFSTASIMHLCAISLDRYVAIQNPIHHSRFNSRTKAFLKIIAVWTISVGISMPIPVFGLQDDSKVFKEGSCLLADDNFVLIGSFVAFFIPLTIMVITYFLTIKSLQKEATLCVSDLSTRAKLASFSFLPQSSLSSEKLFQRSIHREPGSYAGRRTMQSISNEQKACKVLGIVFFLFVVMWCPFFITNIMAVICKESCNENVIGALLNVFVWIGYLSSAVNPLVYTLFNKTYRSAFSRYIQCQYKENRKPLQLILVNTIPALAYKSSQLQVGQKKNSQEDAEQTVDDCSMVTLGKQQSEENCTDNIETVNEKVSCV
Sequence of σ-1 receptor (CHO cells transfected with σ-1 receptor cDNA) (Q99720 whole entry): as the sequence (Q99720 whole entry, species assumed) above
Sequence of σ-2 receptor (Q5U3Y7 whole entry): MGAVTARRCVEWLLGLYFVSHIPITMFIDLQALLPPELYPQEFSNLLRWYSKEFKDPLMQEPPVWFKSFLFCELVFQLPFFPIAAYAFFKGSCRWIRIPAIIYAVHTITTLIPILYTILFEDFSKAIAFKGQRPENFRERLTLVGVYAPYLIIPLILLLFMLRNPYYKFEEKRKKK

CCCc1ccc2c(c1)sc(=O)n2CCN1CCCCC1 [SN56]
Selectivity Ratio for the σ-1 receptor (reported) (σ-1 receptor): > 1000
Ki (σ-1 receptor; read-out: Ki at σ-1 receptor (reported)): 0.00056 µM

CC(CCCn1c(=O)sc2cc(F)ccc21)N1CCN(C2CCCCC2)CC1 (stereo not drawn) [AZ-66]
CLint whole liver ([1]; AZ_66 1 μM, rat): 0.002434 L/min
half-life at 1 μM ([1]; pH 7.4, rat liver microsomes, 1 μM, 0-30 min linear part, read-out: estimated t1/2 for disappearance): 116 ± 15 min
added substrate metabolized by 60 min ([1]; rat liver microsomes, 60 min): about 25%
microsomal CLint at 1 μM ([1]; rat, rat liver microsomes, pH 7.4, read-out: estimated CLint from microsomes): 6 µL/min/mg
Ki (σ-2 receptor): 0.00176 ± 0.00034 µM

COc1cc(CCN2CCN(CCCc3ccccc3)CC2)ccc1OC[18F] [[^18F]FM-SA4503]
time of maximum uptake in the brain (mouse brain): 30 minutes post injection

Cl.O=c1sc2cc(CCCF)ccc2n1CCN1CCCCCC1 [CM304, 3-(2-(azepan-1-yl)ethyl)-6-(3-fluoropropyl)benzo[d]thiazol-2(3H)-one hydrochloride]
displacement of the radioligand at 100 nM (59 targets (non-sigma); 100 nM screening concentration): < 20%
displacement of the radioligand at 10,000 nM (59 targets (non-sigma); 10,000 nM screening concentration): > 50%
clearance in mouse liver microsomes [2]: 0.55 mL/min/g
half-life at 5 mM ([2]; mouse, microsomes, pH 7.4): 4.2 min
attenuation of cocaine-induced convulsions by CM304 (Swiss Webster mice [3]): significantly attenuated cocaine-induced convulsions at all doses examined
logP [4]: -0.15 ± 0.05
clearance in rat liver microsomes [5]: 0.18 mL/min/g

N#Cc1ccc(OCC2CCN(CC[18F])CC2)cc1 [[^18F]SFE]
reduction in peak uptake in rat brain over a 90 min period (rat brain): 40%

O=C(Cc1ccccc1F)NC1CCN(Cc2ccc([18F])cc2)CC1 [[^18F]FBFPA, N-[^18F]4′-fluorobenzylpiperidin-4yl-(2-fluorophenyl) acetamide, reference compound]
affinity for σ-2 receptor/σ-1 receptor (reported) (σ-1 receptor): 44

CC(=O)c1ccc2c(c1)oc(=O)n2CCCCN1CCN(c2ccc(F)cc2)CC1.Cl.Cl [SN-79]
attenuation of development of cocaine-induced sensitization (Swiss Webster mice [6]): significant attenuation; also recorded: attenuates the development of cocaine-induced sensitization
attenuation of expression of cocaine-induced sensitization (Swiss Webster mice [7]): attenuates the expression of cocaine-induced sensitization
Ki (dopamine D2 receptors): > 10 µM
attenuation of cocaine-induced locomotor activity (Swiss Webster mice [8]): significant attenuation; also recorded: attenuates cocaine-induced locomotor activity
attenuation of cocaine-induced convulsions (Swiss Webster mice [9]): significant attenuation; also recorded: attenuates the convulsive effects of cocaine
Ki (NMDA receptors): > 10 µM
Ki (5-HT2 receptors): 0.32 ± 0.016 µM
Ki (opioid receptors): > 10 µM

O=c1sc2cc(CCC[18F])ccc2n1CCN1CCCCCC1 [[^18F]FTC-146, 6-(3-fluoropropyl)-3-(2-(azapan-1-yl)ethyl)benzo[d]thiazol-2(3H)-one]
uptake in cells transfected with σ-1 receptor cDNA versus control CHO cells [10]: 4 fold

S=c1sc2ccccc2n1CCCCN1CCN(C2CCCCC2)CC1 [CM156]
attenuation of methamphetamine-induced locomotor activity (Swiss Webster mice [11]): attenuated the locomotor stimulant effects of methamphetamine; also recorded: attenuates methamphetamine-induced locomotor activity
attenuation of expression of cocaine-induced sensitization (Swiss Webster mice [7]): significant attenuation; also recorded: attenuates the expression of cocaine-induced sensitization
attenuation of methamphetamine-induced dopamine depletions (neurotoxic effects) (Swiss Webster mice [12]): attenuated; also recorded: attenuates methamphetamine-induced dopamine depletions
attenuation of cocaine-induced locomotor activity (Swiss Webster mice [8]): significant attenuation; also recorded: attenuates cocaine-induced locomotor activity
attenuation of cocaine-induced convulsions (Swiss Webster mice [9]): significant attenuation; also recorded: attenuates the convulsive effects of cocaine
Ki (opioid receptors): > 10 µM

[17F]CCC1OC2(CCN(Cc3ccccc3)CC2)c2ccccc21 (stereo not drawn) [[^18F]fluspidine]
brain level at 60 minutes post injection relative to maximum (reported) (mouse brain): 81 % of its maximum
